Laboratory results from ChEMBL document CHEMBL6120946, “From Hit to Lead: Discovery of First-In-Class Furanone Glycoside D228 Derived from Chimonanthus salicifolius for the Treatment of Inflammatory Bowel Disease” (J Med Chem, 2024).
The source made the active and inactive calls.

Tests used:
[1] = Toxicity in male Kunming mouse assessed as effect on spleen to body weight ratio at 100 to 500 mg/kg/day, po measured after 5 weeks; format: organism-based; conditions: in vivo, 840 h, dose 100-500 mg/kg/day
Mus musculus [2] = experiment: Antiinflammatory activity in DSS-induced male C57BL/6 mouse model of inflammatory bowel disease assessed as restoration of colon length at 40 mg/kg/day, po via gavage measured after 14 days relative to control; format: functional; conditions: time 14 day
[3] = Toxicity in male Kunming mouse assessed as effect on ALT level in serum at 100 to 500 mg/kg/day, po measured after 5 weeks; format: organism-based; conditions: in vivo, 840 h, dose 100-500 mg/kg/day
[4] = Toxicity in female Kunming mouse assessed as effect on heart to body weight ratio at 100 to 500 mg/kg/day, po measured after 5 weeks; format: organism-based; conditions: in vivo, 840 h, dose 100-500 mg/kg/day
[5] = Toxicity in female Kunming mouse assessed as effect on T-CHO level in serum at 100 to 500 mg/kg/day, po measured after 5 weeks; format: organism-based; conditions: in vivo, 840 h, dose 100-500 mg/kg/day
Mus musculus [6] = experiment: Antiinflammatory activity in DSS-induced male C57BL/6 mouse model of inflammatory bowel disease assessed as amelioration of infiltration of inflammatory cells at 50 to 100 microM/Kg by H and E staining based analysis; format: functional, organism-based; conditions: dose 50-100 µM/Kg
Mus musculus [7] = experiment: Antiinflammatory activity in DSS-induced male C57BL/6 mouse model of inflammatory bowel disease assessed as decrease in p38 phosphorylation level at 50 to 100 microM/Kg by Western blot analysis; format: functional, organism-based; conditions: dose 50-100 µM/Kg
[8] = Acute toxicity in female Kunming mouse assessed as effect on lung 5 g/Kg, po measured after 5 weeks; format: organism-based; conditions: in vivo, 5000 mg/kg, 840 h
Mus musculus [9] = experiment: Antiinflammatory activity in DSS-induced male C57BL/6 mouse model of inflammatory bowel disease assessed as increase in colon length at 22.5 mg/kg/day, po via gavage measured upto 14 days relative to control; format: functional; conditions: time <= 14 day
[10] = Toxicity in female Kunming mouse assessed as effect on AST level in serum at 100 to 500 mg/kg/day, po measured after 5 weeks; format: organism-based; conditions: in vivo, 840 h, dose 100-500 mg/kg/day
Mus musculus [11] = experiment: Antiinflammatory activity in DSS-induced male C57BL/6 mouse model of inflammatory bowel disease assessed as increase in colon length at 45 mg/kg/day, po via gavage measured upto 14 days relative to control; format: functional; conditions: time <= 14 day
Mus musculus [12] = experiment: Antiinflammatory activity in DSS-induced male C57BL/6 mouse model assessed as inhibition of IL-22 level in colon at 50 to 100 microM/Kg; format: functional, organism-based; conditions: dose 50-100 µM/Kg
[13] = Toxicity in female Kunming mouse assessed as effect on kidney at 100 to 500 mg/kg/day, po measured after 5 weeks by H and E staining based analysis; format: organism-based; conditions: in vivo, 840 h, dose 100-500 mg/kg/day
[14] = Acute toxicity in female Kunming mouse assessed as effect on kidney 5 g/Kg, po measured after 5 weeks; format: organism-based; conditions: in vivo, 5000 mg/kg, 840 h
[15] = Toxicity in male Kunming mouse assessed as effect on body weight loss at 100 to 500 mg/kg/day, po measured after 5 weeks; format: organism-based; conditions: in vivo, 840 h, dose 100-500 mg/kg/day
[16] = Toxicity in female Kunming mouse assessed as effect on Cl inorganic salt level in serum at 100 to 500 mg/kg/day, po measured after 5 weeks; format: organism-based; conditions: in vivo, 840 h, dose 100-500 mg/kg/day
Mus musculus [17] = experiment: Antiinflammatory activity in DSS-induced male C57BL/6 mouse model of inflammatory bowel disease assessed as downregulation of TRAF6 expression at 50 to 100 microM/Kg by Western blot analysis; format: functional, organism-based; conditions: dose 50-100 µM/Kg
[18] = Toxicity in male Kunming mouse assessed as effect on Cl inorganic salt level in serum at 100 to 500 mg/kg/day, po measured after 5 weeks; format: organism-based; conditions: in vivo, 840 h, dose 100-500 mg/kg/day
[19] = Metabolic stability in dog plasma assessed as half life at pH 7.4 measured upto 60 mins by HPLC-MS analysis; format: ADME, cell-free, Canis lupus familiaris
[20] = Toxicity in male Kunming mouse assessed as effect on K inorganic salt level in serum at 100 to 500 mg/kg/day, po measured after 5 weeks; format: organism-based; conditions: in vivo, 840 h, dose 100-500 mg/kg/day
[21] = Toxicity in male Kunming mouse assessed as effect on BUN level in serum at 100 to 500 mg/kg/day, po measured after 5 weeks; format: organism-based; conditions: in vivo, 840 h, dose 100-500 mg/kg/day
Mus musculus [22] = experiment: Antiinflammatory activity in DSS-induced male C57BL/6 mouse model of inflammatory bowel disease assessed as reduction in diarrhea at 22.5 to 45 mg/kg/day, po via gavage measured upto 14 days; format: functional, organism-based; conditions: dose 22.5-45 mg/kg/day, time <= 14.0 day
[23] = Toxicity in male Kunming mouse assessed as effect on AST level in serum at 100 to 500 mg/kg/day, po measured after 5 weeks; format: organism-based; conditions: in vivo, 840 h, dose 100-500 mg/kg/day
[24] = Acute toxicity in male Kunming mouse assessed as effect on lung 5 g/Kg, po measured after 5 weeks; format: organism-based; conditions: in vivo, 5000 mg/kg, 840 h
Mus musculus [25] = experiment: Antiinflammatory activity in DSS-induced male C57BL/6 mouse model assessed as inhibition of TNF-alpha level in colon at 50 to 100 microM/Kg; format: functional, organism-based; conditions: dose 50-100 µM/Kg
[26] = Toxicity in female Kunming mouse assessed as effect on GLU level in serum at 100 to 500 mg/kg/day, po measured after 5 weeks; format: organism-based; conditions: in vivo, 840 h, dose 100-500 mg/kg/day
Mus musculus [27] = experiment: Antiinflammatory activity in DSS-induced male C57BL/6 mouse model of inflammatory bowel disease assessed as increase in colon length at 10 mg/kg/day, ip measured after 14 days relative to control; format: functional; conditions: time 14 day
Mus musculus [28] = experiment: Antiinflammatory activity in DSS-induced male C57BL/6 mouse model of inflammatory bowel disease assessed as upregulation of ZO-1 expression in colon at 50 to 200 microM/Kg by immunohistochemical analysis; format: functional, organism-based; conditions: dose 50-200 µM/Kg
Mus musculus [29] = experiment: Antiinflammatory activity in DSS-induced male C57BL/6 mouse model of inflammatory bowel disease assessed as increase in colon length at 30 mg/kg/day, po via gavage measured upto 14 days relative to control; format: functional; conditions: time <= 14 day
Mus musculus [30] = species on record: Mus musculus; experiment: Antiinflammatory activity in DSS-induced male C57BL/6 mouse model of inflammatory bowel disease assessed as reduction in TLR8 level; format: functional, organism-based
Mus musculus [31] = experiment: Antiinflammatory activity in DSS-induced male C57BL/6 mouse model of inflammatory bowel disease assessed as increase in colon length at 60 mg/kg/day, po via gavage measured upto 14 days relative to control; format: functional; conditions: time <= 14 day
Mus musculus [32] = experiment: Antiinflammatory activity in DSS-induced male C57BL/6 mouse model of inflammatory bowel disease assessed as recovery from body weight loss at 20 mg/kg/day, ip measured after 14 days relative to control; format: functional; conditions: time 14 day
Mus musculus [33] = experiment: Antiinflammatory activity in DSS-induced male C57BL/6 mouse model of inflammatory bowel disease assessed as reduction of severe diarrhea at 15 to 60 mg/kg/day, po via gavage measured upto 14 days; format: functional, organism-based; conditions: dose 15-60 mg/kg/day, time <= 14.0 day
Mus musculus [34] = experiment: Antiinflammatory activity in DSS-induced male C57BL/6 mouse model of inflammatory bowel disease assessed as increase in colon length at 20 mg/kg/day, ip measured after 14 days relative to control; format: functional; conditions: time 14 day
Mus musculus [35] = experiment: Antiinflammatory activity in DSS-induced male C57BL/6 mouse model of inflammatory bowel disease assessed as inhibition of MPO expression at 50 to 200 microM/Kg, po by immunohistochemical analysis; format: functional, organism-based; conditions: dose 50-200 µM/Kg
Mus musculus [36] = experiment: Antiinflammatory activity in DSS-induced male C57BL/6 mouse model assessed as inhibition of IL-6 level in colon at 50 to 200 microM/Kg; format: functional, organism-based; conditions: dose 50-200 µM/Kg

CC(=O)OC[C@H]1O[C@@H](OC2=C(C)OC(=C(C)C)C2=O)[C@H](OC(C)=O)[C@@H](OC(C)=O)[C@@H]1OC(C)=O
32.5 min: half-life [19]
91.4%: Activity (Mus musculus [11])
Non-toxic: Activity [1] | Activity [3] | Activity [4] | Activity [5] | Activity [8] | Activity [10] | Activity [13] | Activity [14] | Activity [15] | Activity [16] | Activity [18] | Activity [20] | Activity [21] | Activity [23] | Activity [24] | Activity [26]
active: Activity (Mus musculus [6]) | Activity (Mus musculus [7]) | Activity (Mus musculus [12]) | Activity (Mus musculus [17]) | Activity (Mus musculus [22]) | Activity (Mus musculus [25])
28.6%: Activity (Mus musculus [2])
45.3%: Activity (Mus musculus [9])

CC(C)=C1OC(C)=C(O[C@@H]2O[C@H](CO)[C@@H](O)[C@H](O)[C@H]2O)C1=O
65.6%: Activity (Mus musculus [29])
47.4%: Activity (Mus musculus [34])
20.4%: Activity (Mus musculus [27])
active: Activity (Mus musculus [28]) | Activity (Mus musculus [30]) | Activity (Mus musculus [33]) | Activity (Mus musculus [35]) | Activity (Mus musculus [36])
73.4%: Activity (Mus musculus [31])
50%: Activity (Mus musculus [32])
